Several values for one entry are separate records, joined by “and”; a condition that tells them apart may be missing. Equal values may be shown once.

T1 sequence (Q5S007 whole entry): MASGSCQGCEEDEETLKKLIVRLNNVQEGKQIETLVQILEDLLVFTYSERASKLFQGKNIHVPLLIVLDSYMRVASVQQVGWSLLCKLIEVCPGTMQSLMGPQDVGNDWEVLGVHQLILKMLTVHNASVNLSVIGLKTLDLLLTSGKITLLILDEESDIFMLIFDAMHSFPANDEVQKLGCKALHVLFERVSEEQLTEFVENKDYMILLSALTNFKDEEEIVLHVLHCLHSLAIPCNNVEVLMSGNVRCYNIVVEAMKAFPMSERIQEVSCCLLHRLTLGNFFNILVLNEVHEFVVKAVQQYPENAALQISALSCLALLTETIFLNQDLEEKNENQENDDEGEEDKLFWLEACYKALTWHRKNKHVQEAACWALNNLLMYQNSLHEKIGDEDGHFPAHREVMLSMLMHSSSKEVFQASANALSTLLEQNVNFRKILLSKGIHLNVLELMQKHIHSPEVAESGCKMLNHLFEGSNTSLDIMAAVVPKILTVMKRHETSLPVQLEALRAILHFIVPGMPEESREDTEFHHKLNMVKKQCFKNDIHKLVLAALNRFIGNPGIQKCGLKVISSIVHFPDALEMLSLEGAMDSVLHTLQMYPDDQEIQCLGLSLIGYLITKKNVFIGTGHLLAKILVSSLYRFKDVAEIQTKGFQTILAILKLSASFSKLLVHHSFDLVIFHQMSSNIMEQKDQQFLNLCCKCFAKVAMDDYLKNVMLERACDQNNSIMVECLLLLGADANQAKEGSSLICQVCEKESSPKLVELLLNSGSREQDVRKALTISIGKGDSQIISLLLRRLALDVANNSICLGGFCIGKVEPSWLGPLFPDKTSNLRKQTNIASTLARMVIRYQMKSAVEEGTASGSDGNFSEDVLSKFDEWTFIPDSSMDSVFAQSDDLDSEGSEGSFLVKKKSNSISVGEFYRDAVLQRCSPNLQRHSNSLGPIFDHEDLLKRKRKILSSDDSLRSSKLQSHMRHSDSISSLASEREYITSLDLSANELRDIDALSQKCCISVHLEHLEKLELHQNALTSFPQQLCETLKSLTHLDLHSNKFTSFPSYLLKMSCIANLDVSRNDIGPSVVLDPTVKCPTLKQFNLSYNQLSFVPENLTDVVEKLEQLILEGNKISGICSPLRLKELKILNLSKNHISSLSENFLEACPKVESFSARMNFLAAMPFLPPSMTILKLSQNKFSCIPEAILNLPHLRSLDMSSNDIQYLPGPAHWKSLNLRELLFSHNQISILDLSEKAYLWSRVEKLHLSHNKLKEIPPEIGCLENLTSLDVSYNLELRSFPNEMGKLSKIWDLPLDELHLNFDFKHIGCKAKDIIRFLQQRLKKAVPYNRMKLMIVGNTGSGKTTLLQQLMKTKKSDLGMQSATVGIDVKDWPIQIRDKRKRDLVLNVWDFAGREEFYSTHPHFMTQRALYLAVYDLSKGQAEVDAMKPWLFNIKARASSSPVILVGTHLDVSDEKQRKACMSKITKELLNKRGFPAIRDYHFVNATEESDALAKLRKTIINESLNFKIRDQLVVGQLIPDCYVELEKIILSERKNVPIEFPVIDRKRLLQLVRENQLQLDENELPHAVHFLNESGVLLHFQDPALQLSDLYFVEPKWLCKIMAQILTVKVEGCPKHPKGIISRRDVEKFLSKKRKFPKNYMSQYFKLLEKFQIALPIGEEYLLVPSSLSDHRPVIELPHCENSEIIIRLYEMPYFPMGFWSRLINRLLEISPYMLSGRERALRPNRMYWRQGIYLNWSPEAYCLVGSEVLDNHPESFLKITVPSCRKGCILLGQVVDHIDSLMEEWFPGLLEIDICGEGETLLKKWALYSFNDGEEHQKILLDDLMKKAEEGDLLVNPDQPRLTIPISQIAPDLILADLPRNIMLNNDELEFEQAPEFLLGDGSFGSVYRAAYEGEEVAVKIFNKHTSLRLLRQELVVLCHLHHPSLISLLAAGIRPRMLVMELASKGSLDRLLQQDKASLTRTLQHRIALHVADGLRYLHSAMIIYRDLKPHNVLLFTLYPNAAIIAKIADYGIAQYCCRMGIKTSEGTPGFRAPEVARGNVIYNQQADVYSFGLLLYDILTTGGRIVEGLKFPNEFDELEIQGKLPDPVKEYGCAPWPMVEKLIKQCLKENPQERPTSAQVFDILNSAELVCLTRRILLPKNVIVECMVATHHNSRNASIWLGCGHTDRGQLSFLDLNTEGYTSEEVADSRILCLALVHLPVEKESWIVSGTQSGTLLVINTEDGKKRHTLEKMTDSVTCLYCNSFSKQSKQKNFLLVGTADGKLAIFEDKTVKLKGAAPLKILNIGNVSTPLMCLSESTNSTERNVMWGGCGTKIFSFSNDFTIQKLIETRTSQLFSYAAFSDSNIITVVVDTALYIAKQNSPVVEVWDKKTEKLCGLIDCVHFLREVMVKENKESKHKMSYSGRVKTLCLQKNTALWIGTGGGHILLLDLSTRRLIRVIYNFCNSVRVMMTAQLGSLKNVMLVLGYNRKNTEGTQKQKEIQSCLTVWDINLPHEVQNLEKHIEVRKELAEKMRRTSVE

The experiment addresses T1, LRRK2 (Homo sapiens, UniProt Q5S007).
T1 construct: A BacMam virus expressing full length recombinant LRRK2 was purchased from Invitrogen; host or cells: SH-SY5Y human neuroblastoma cells transduced with BacMam LRRK2 virus
Briefly: Recombinant cellular LRRK2 AlphaScreen assay (LRRK2 Ser935 phosphorylation in SH-SY5Y cells over-expressing recombinant full length LRRK2). Type of experiment: cell-based. The conditions noted are these: 60 minutes compound incubation, read-out: pIC50 in the recombinant cellular LRRK2 AlphaScreen assay (converted). The source says: 2) Recombinant Cellular LRRK2 AlphaScreen Assay
To determine the activity of compounds against LRRK2 kinase activity in cells, the observed LRRK2 kinase-dependent modulation of LRRK2 Ser 935 phosphorylation (Dzamko et al., 2010, Biochem. J. 430: 405-413) was utilized to develop a quantitative 384 well plate-based immunoassay of LRRK2 Ser935 phosphorylation in the human neuroblastoma cell line SH-SY5Y, engineered to over-express recombinant full length LRRK2 protein.
A BacMam virus expressing full length recombinant LRRK2 was purchased from Invitrogen and amplified by inoculation of SF-9 cells at MOI 0.3 for 4-5 days in Sf-900 III SFM medium supplemented with 3% fetal bovine serum. Infected cell cultures were then centrifuged at 2000 g for 20 minutes, viral supernatant titer determined by anti-gp64 plaque assay and stored at 4° C.
Affinity-purified anti-phospho LRRK2 Ser935 sheep polyclonal antibody (Dzamko et al., 2010, Biochem. J. 430: 405-413) was biotinylated by standard methods (PerkinElmer). Anti-LRRK2 rabbit polyclonal antibody was purchased from Novus Biologicals. AlphaScreen Protein A IgG Kit (including acceptor and donor beads) was purchased from Perkin Elmer. […]
Serial dilutions of test compounds were prepared in Opti-MEM reduced serum media (Invitrogen) and 5.6 ul transferred from compound plate to cell assay plate to achieve a top final assay concentration of 10 uM. […] 10 ul of antibody/acceptor bead mix [(1/1000 biotinylated-pS935 LRRK2 antibody, 1/1000 total-LRRK2 antibody, 1/100 Acceptor beads in AlphaScreen detection buffer (25 mM Hepes (pH 7.4), 0.5% Triton X-100, 1 mg/ml Dextran 500 and 0.1% BSA)] was then added to each well and plates incubated for 2 hours at ambient temperature in the dark. 10 μl of donor beads solution (1/33.3 donor beads in AlphaScreen detection buffer) was then added to each well. Following incubation for a further 2 hours at ambient temperature in the dark, plates were read on an EnVision™ plate reader at emission 520-620 nm with excitation 680 nm. […]
(In general: Alpha assays give light when donor and acceptor beads are brought close together.)
As for `COc1nc(N2CCN3CCC[C@H]3C2)cc(-n2ncc3cc(C)c(C4CCN(C5COC5)CC4F)cc32)n1` (single isomer, unassigned) [Example A-2], the IC50 is not above 100 nM.
Take `COc1nc(N2CCN3CCC[C@@H]3C2)cc(-n2ncc3cc(C)c(C4CCN(C5COC5)CC4F)cc32)n1` (single isomer, unassigned) [Example A-1]: the IC50 was not above 100 nM.
In the case of `COc1nc(N2CCN3CCOCC3C2)cc(-n2ncc3cc(C)c(C4CCN(C5COC5)CC4)cc32)n1` (single isomer, unassigned) [Example A-13, 8-(2-methoxy-6-(5-methyl-6-(1-(oxetan-3-yl)piperidin-4-yl)-1H-indazol-1-yl)pyrimidin-4-yl)octahydropyrazino[2,1-c][1,4]oxazine], the IC50 was 7.94 nM and ≤ 100 nM.

The record behind these values is patent publication US11034696B2, “Compounds for inhibiting LRRK2 kinase activity” (GLAXOSMITHKLINE INTELLECTUAL PROPERTY DEVELOPMENT LIMITED, priority 2017, dated 2021).
